Data from ChEMBL document CHEMBL6083206, “SLL-1A-16 suppresses proliferation and induces autophagy in non-small-cell lung cancer cells via the AKT/mTOR signaling pathway” (RSC Med Chem, 2024).
Calls of active or inactive are those of the source. The calls are words filed in the database; no cut-off is given here.

Columns and labels:
NCI-H460 [1] = assay: Antiproliferative activity against human NCI-H460 cells assessed as inhibition of cell proliferation in presence of temsirolimus by CCK8 assay; type: functional, cell-based
A549 [2] = assay: Induction of apoptosis in human A549 cells assessed as late apoptotic cells at 10 uM incubated for 24 hrs by Annexin V-FITC/PI staining based flow cytometric analysis (reference value: 2.29 %); type: functional
NCI-H460 [3] = assay: Inhibition of colony formation in human NCI-H460 cells at 10 to 30 uM incubated for 24 hrs by giemsa staining based analysis; type: functional, cell-based; conditions: dose 10-30 µM
A549 [4] = assay: Induction of apoptosis in human A549 cells assessed as late apoptotic cells at 30 uM incubated for 24 hrs by Annexin V-FITC/PI staining based flow cytometric analysis (reference value: 2.29 %); type: functional
[5] = test system: Gefitinib-resistant A549/G cell; assay: Inhibition of Akt/mTOR signaling pathway in human Gefitinib-resistant A549/G cell assessed as decrease in phosphorylated […] in presence of gefitinib by Western blot analysis; type: cell-based
A549 [6] = assay: Induction of apoptosis in human A549 cells assessed as necrotic cells at 10 uM incubated for 24 hrs by Annexin V-FITC/PI staining based flow cytometric analysis (reference value: 0.97 %); type: functional
BEAS-2B = assay: Cytotoxicity against human BEAS-2B cells assessed as inhibition of cell viability at 3 to 300 uM incubated for 48 hrs by CCK8 assay; type: toxicity, cell-based; conditions: dose 3-300 µM
A549 [7] = assay: Inhibition of Akt/mTOR signalling pathway in human A549 cells assessed as decrease in mTOR expression by Western blot analysis; type: cell-based; conditions: dose 10-30 µM
A549 [8] = assay: Induction of apoptosis in human A549 cells assessed as upregulation of cleaved caspase 3 expression at 10 to 30 uM by Western blot analysis; type: functional, cell-based; conditions: dose 10-30 µM
NCI-H460 [9] = assay: Induction of apoptosis in human NCI-H460 cells assessed as late apoptotic cells at 10 uM incubated for 24 hrs by Annexin V-FITC/PI staining based flow cytometric analysis (reference value: 4.15 %); type: functional
[10] = test system: Gefitinib-resistant A549/G cell; assay: Antiproliferative activity against human Gefitinib-resistant A549/G cell assessed as inhibition of cell proliferation in presence of gefitinib; type: functional, cell-based
NCI-H460 [11] = assay: Induction of apoptosis in human NCI-H460 cells assessed as necrotic cells at 10 uM incubated for 24 hrs by Annexin V-FITC/PI staining based flow cytometric analysis (reference value: 0.68 %); type: functional
NCI-H460 [12] = assay: Induction of apoptosis in human NCI-H460 cells assessed as early apoptotic cells at 10 uM incubated for 24 hrs by Annexin V-FITC/PI staining based flow cytometric analysis (reference value: 3.22 %); type: functional
NCI-H460 [13] = assay: Inhibition of Akt/mTOR signalling pathway in human NCI-H460 cells assessed as decrease in phosphorylated PRAS40 expression by Western blot analysis; type: cell-based; conditions: dose 10-30 µM
A549 [14] = assay: Induction of autophagy in human A549 cells assessed as increase in fluorescence intensity of anti-LC3 incubated for 48 hrs by immunofluorescence staining based analysis; type: functional, cell-based; conditions: dose 10-30 µM
A549 [15] = assay: Cell cycle arrest in human A549 cells assessed as downregulation of cyclin D1 expression at 10 to 30 uM by Western blot analysis; type: functional, cell-based; conditions: dose 10-30 µM
NCI-H460 [16] = assay: Inhibition of Akt/mTOR signalling pathway in human NCI-H460 cells assessed as decrease in phosphorylated P70 S6k expression by Western blot analysis; type: cell-based; conditions: dose 10-30 µM
A549 [17] = assay: Inhibition of Akt/mTOR signalling pathway in human A549 cells assessed as decrease in c-myc expression by Western blot analysis; type: cell-based; conditions: dose 10-30 µM
A549 [18] = assay: Induction of apoptosis in human A549 cells assessed as upregulation of Bax expression at 10 to 30 uM by Western blot analysis; type: functional, cell-based; conditions: dose 10-30 µM
A549 [19] = assay: Cell cycle arrest in human A549 cells assessed as accumulation of cells at G1 phase at 10 uM incubated for 24 hrs by PI staining based flow cytometric analysis (reference value: 56.42 +/- 1.36 %); type: functional
NCI-H460 [20] = assay: Cell cycle arrest in human NCI-H460 cells assessed as downregulation of CDK4 expression at 10 to 30 uM by Western blot analysis; type: functional, cell-based; conditions: dose 10-30 µM
A549 [21] = assay: Induction of apoptosis in human A549 cells assessed as early apoptotic cells at 30 uM incubated for 24 hrs by Annexin V-FITC/PI staining based flow cytometric analysis (reference value: 0.44 %); type: functional
A549 [22] = assay: Induction of autophagy in human A549 cells assessed as increase in LC3-II expression at 10 to 30 uM incubated for 24 hrs by Western blot analysis; type: functional, cell-based; conditions: dose 10-30 µM
NCI-H460 [23] = assay: Induction of autophagy in human NCI-H460 cells assessed as increase in Atg5 expression at 10 to 30 uM incubated for 24 hrs by Western blot analysis; type: functional, cell-based; conditions: dose 10-30 µM
A549 [24] = assay: Induction of apoptosis in human A549 cells assessed as early apoptotic cells at 10 uM incubated for 24 hrs by Annexin V-FITC/PI staining based flow cytometric analysis (reference value: 0.44 %); type: functional
NCI-H460 [25] = assay: Inhibition of Akt/mTOR signalling pathway in human NCI-H460 cells assessed as decrease in mTOR expression by Western blot analysis; type: cell-based; conditions: dose 10-30 µM
[26] = test system: Gefitinib-resistant A549/G cell; assay: Inhibition of Akt/mTOR signaling pathway in human Gefitinib-resistant A549/G cell assessed as decrease in phosphorylated 4EBP1 expression in presence of gefitinib by Western blot analysis; type: cell-based
A549 [27] = assay: Induction of apoptosis in human A549 cells assessed as necrotic cells at 30 uM incubated for 24 hrs by Annexin V-FITC/PI staining based flow cytometric analysis (reference value: 0.97 %); type: functional
NCI-H460 [28] = assay: Inhibition of Akt/mTOR signaling pathway in human NCI-H460 cells assessed as decrease in mTOR expression in presence of temsirolimus by Western blot analysis; type: cell-based
NCI-H460 [29] = assay: Cell cycle arrest in human NCI-H460 cells assessed as accumulation of cells at G1-S phase at 10 to 30 uM incubated for 24 hrs by PI staining based flow cytometric analysis; type: functional; conditions: dose 10-30 µM
A549 [30] = assay: Induction of apoptosis in human A549 cells assessed as viable cells at 30 uM incubated for 24 hrs by Annexin V-FITC/PI staining based flow cytometric analysis (reference value: 96.29 %); type: functional; conditions: read-out: Activity
A549 [31] = assay: Inhibition of Akt/mTOR signalling pathway in human A549 cells assessed as decrease in phosphorylated P70 S6K expression by Western blot analysis; type: cell-based; conditions: dose 10-30 µM
A549 [32] = assay: Antitumor activity against human A549 cells xenografted in Balb/c nude mouse assessed as reduction in tumor growth rate at 7.5 to 15 mg/kg, ip administered for 14 days; type: functional, organism-based; conditions: dose 7.5-15 mg/kg, time 14.0 day
A549 [33] = assay: Inhibition of colony formation in human A549 cells at 10 to 30 uM incubated for 24 hrs by giemsa staining based analysis; type: functional, cell-based; conditions: dose 10-30 µM
NCI-H460 [34] = assay: Induction of apoptosis in human NCI-H460 cells assessed as upregulation of cleaved caspase 3 expression at 10 to 30 uM by Western blot analysis; type: functional, cell-based; conditions: dose 10-30 µM
[35] = Toxicity in Balb/c nude mouse xenografted with human A549 cells assessed as reduction in body weight at 7.5 to 15 mg/kg, ip administered for 14 days; type: organism-based; conditions: in vivo, 336 h, dose 7.5-15 mg/kg, time 14 day

For `N#C[Se]CCCNC(=O)c1cccnc1`, the Activity (NCI-H460 [1]) was “Active”, the Activity (A549 [2]) was 8.48% and the inhibition (NCI-H460 [3]) was “Active”. For the same compound, the Activity (A549 [4]) was 14.41%, the inhibition [5] was “Active” and the Activity (A549 [6]) was 3.03%. The Activity (BEAS-2B) was “Toxic”, the inhibition (A549 [7]) was “Dose-dependent-effect; Inhibitory Ability Of Compound Is Comparable To Temsirolimus” and the Activity (A549 [8]) was “Active”. The Activity (NCI-H460 [9]) was 8.98%, the Activity [10] was “Active” and the Activity (NCI-H460 [11]) was 3.73%. For the same compound, the Activity (NCI-H460 [12]) was 5.81%, the inhibition (NCI-H460 [13]) was “Dose-dependent-effect; Inhibitory Ability Of Compound Is Comparable To Temsirolimus” and the Activity (A549 [14]) was “Dose-dependent-effect”. For the same compound, the Activity (A549 [15]) was “Active; G1 Phase Cell Cycle Arrest Observed”, the inhibition (NCI-H460 [16]) was “Dose-dependent-effect; Inhibitory Ability Of Compound Is Comparable To Temsirolimus” and the inhibition (A549 [17]) was “Dose-dependent-effect; Inhibitory Ability Of Compound Is Comparable To Temsirolimus”. The Activity (A549 [18]) was “Active”, the Activity (A549 [19]) was 75.43% and the Activity (NCI-H460 [20]) was “Active; G1 Phase Cell Cycle Arrest Observed”. The Activity (A549 [21]) was 4.58%, the Activity (A549 [22]) was “Active” and the Activity (NCI-H460 [23]) was “Active”. The Activity (A549 [24]) was 3.66%, the inhibition (NCI-H460 [25]) was “Dose-dependent-effect; Inhibitory Ability Of Compound Is Comparable To Temsirolimus” and the inhibition [26] was “Active”. The Activity (A549 [27]) was 5.12%, the inhibition (NCI-H460 [28]) was “Active” and the Activity (NCI-H460 [29]) was “Active”. For the same compound, the viability at 30 µM (A549 [30]) was 75.9%, the inhibition (A549 [31]) was “Dose-dependent-effect; Inhibitory Ability Of Compound Is Comparable To Temsirolimus” and the Activity (A549 [32]) was “Active; Comparable To 25 Mg/Kg Of Gemcitabine Hydrochloride”. For the same compound, the inhibition (A549 [33]) was “Active”, the Activity (NCI-H460 [34]) was “Active” and the Activity [35] was “Non-toxic”.
